The nature of the data set: Plasma pharmacokinetics of lenvatinib, carboplatin and paclitaxel. The format is in vivo. To be noted: human, intravenous, mean±s.d.

The term clearance denotes the rate of elimination divided by the concentration. For orientation: Vd means a proportionality between amount in the body and measured concentration, not a real space. By half-life is commonly meant how long it takes for the measured level to halve. Read a low half-life as fast loss. `CC(=O)O[C@H]1C(=O)[C@@]2(C)[C@H]([C@H](OC(=O)c3ccccc3)[C@]3(O)C[C@H](OC(=O)[C@H](O)[C@@H](NC(=O)c4ccccc4)c4ccccc4)C(C)=C1C3(C)C)[C@]1(OC(C)=O)CO[C@@H]1C[C@@H]2O` [Paclitaxel, reference compound] had a clearance (CL, paclitaxel 200 mg m^−2, with lenvatinib 4 mg BID (n=6)) of 240 mL/min. The compound also registered a Vd (Vss, paclitaxel 200 mg m^−2, with lenvatinib 4 mg BID (n=6)) of 69.1 ± 27.7 L. For the setting “t1/2, paclitaxel 200 mg m^−2, with lenvatinib 4 mg BID (n=6)”, this compound showed a half-life of 6.65 ± 0.39 h.
